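96-well plates; 48 h exposure; 5 concentrations. Endpoints by linear interpolation between flanking doses. Not reached: highest tested concentration assigned. TGI: concentration producing complete growth inhibition.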

Common to all, as to test: NCI anticancer screen, dose series, 48 h
Assay [1] concerns A498 renal.
The test system of assay [2] is LOX IMVI melanoma.
Assay [3] relates to SF-268 CNS.
In assay [4] the test system is NCI-H23 lung.
Assay [5] relates to HOP-62 NSCLC.
Assay [6] relates to NCI-H522 lung.
For assay [7], the system named is NCI-H226 lung.
The test system of assay [8] is HL-60(TB) leukemia.
The test system of assay [9] is HS 578T breast.
The subject of assay [10] is A549 NSCLC.
Assay [11] concerns MOLT-4 leukemia.
In assay [12] the test system is DU-145 prostate.
Assay [13] deals with SF-295 CNS.
The test system of assay [14] is SR leukemia.
For assay [15], the system named is ACHN renal.
Assay [16] concerns TK-10 renal.
Assay [17] concerns CAKI-1 renal.
In assay [18] the test system is HCT-116 colon.
Assay [19] deals with K-562 leukemia.
The subject of assay [20] is COLO 205 colon.

In the case of `CCN(CC)c1ccc(/C=C2/C[N+](C)(C)C/C(=C/c3ccc(N(CC)CC)cc3)C2=O)cc1`, the TGI in [1] is more than 42.2 µM; in [2], 6.16 µM; in assay [3], 11.2 µM; in assay [4] it was 10.3 µM; in [5], 40.7 µM; in assay [6], 7.74 µM. Besides, the TGI in assay [7] is 17.2 µM; in assay [8], 2.16 µM; in assay [9], 11.2 µM; in assay [10], more than 100 µM; in assay [11], 4.83 µM; in assay [12] it was more than 50.6 µM. For the same compound, the TGI was more than 90.6 µM in assay [13]; 3.52 µM in [14]; more than 100 µM in assay [15]; 61.8 µM in [16]; more than 100 µM in assay [17]; 7.77 µM in assay [18]. For the same compound, the TGI stood at 7.91 µM in assay [19] and 2.69 µM in [20].

Consider `Cc1ccc(O)c(C(c2ccc([N+](=O)[O-])cc2)c2cc(C)ccc2O)c1`, for which the TGI in assay [1] worked out at 43 µM; in [2] it was 55.6 µM; in assay [3] it was 22 µM; in [4], 21.5 µM; in assay [5], 23.1 µM; in [6], 28.6 µM. Besides, the TGI in assay [7] came to 39.9 µM; in assay [8], 7.61 µM; in [9], 24 µM; in assay [10] it was 25.6 µM; in [11], 26.3 µM; in [12] it was 27.4 µM. Moreover, the TGI in assay [13] turned out to be 31.3 µM; in assay [14], 22.8 µM; in assay [15], 19.2 µM; in assay [16], 30.4 µM; in [17], 28.6 µM; in assay [18] it was 40.6 µM. For the same compound, the TGI in [19] was more than 100 µM; in assay [20] it was 44.1 µM.

As to `Cc1ncc([N+](=O)[O-])n1CCN(C)C(=O)CCCn1ccnc1[N+](=O)[O-]`, the TGI in assay [1], in assay [2], in [3], in assay [4], in [5] and in [6] was more than 100 µM throughout. The TGI in [7], in assay [8], in assay [9], in assay [10], in [11] and in assay [12] was more than 100 µM each time. In addition, the TGI in assay [13], in [14], in assay [15], in assay [16], in [17] and in [18] was more than 100 µM each time. In addition, the TGI in [19] and in assay [20] was more than 100 µM each time.

In the case of `CN(C)c1ccc(/C=C(\NC(=O)c2ccccc2)C(=O)NCC(=O)O)cc1`, the TGI in assay [1], in [2], in [3], in assay [4], in assay [5] and in assay [6] was more than 100 µM in each case. Moreover, the TGI in assay [7], in assay [8], in [9], in assay [10], in [11] and in [12] was more than 100 µM throughout. In addition, the TGI in assay [13], in [14], in [15], in assay [17], in assay [18] and in [19] was more than 100 µM throughout. In assay [20], this compound gave a TGI of more than 100 µM.

Turning to `COC(=O)[C@@H]1C=C[C@H](OC2OC(COC(C)=O)C(OC(C)=O)C(OC(C)=O)C2OC(C)=O)n2c(=O)c3ccccc3c(=O)n21` (some centres not stated), the TGI in assay [1] worked out at 32.6 µM; in assay [2] it was 29.5 µM; in [4] it was 39.9 µM; in assay [5], 36.3 µM; in assay [6] it was 3.28 µM; in assay [7], 46.3 µM. The TGI in [8] is 30.2 µM; in assay [9], 76.2 µM; in [10], 47.4 µM; in assay [11] it was 41.1 µM; in assay [12] it was 38.3 µM; in assay [13], 53.9 µM. The TGI in assay [14] was more than 100 µM; in assay [15] it was 24.1 µM; in assay [16], 18.3 µM; in assay [17] it was 13 µM; in assay [18], 22.8 µM; in [19], 24.5 µM. For the same compound, in assay [20], the TGI is 22.4 µM.

`C=C1[C@H](OC(=O)C(C)C)[C@]23CC4(O)[C@@H]5[C@@]6(C)CCC[C@]57C([C@@H]2C[C@@]1(O)[C@H](O)[C@@H]73)N4C6`: the TGI in assay [1], in assay [2], in [3], in assay [4], in assay [5] and in assay [6] was more than 100 µM throughout. The TGI in [7], in [8], in assay [9], in assay [10], in assay [11] and in assay [12] was more than 100 µM throughout. Further, the TGI in assay [13], in assay [14], in [15], in assay [16], in [17] and in [18] was more than 100 µM in each case. This compound showed a TGI in assay [20] of more than 100 µM.

The values are drawn from PubChem BioAssay (NCI).
